Converted amounts (≈) assume the structure as drawn.
Columns and labels:
[1] = system: Penicillium funiculosum; assay: MIC against fungi, Penicillium funiculosum (PDA medium); format: cell-based; settings: Talaromyces funiculosus, 336 h; 28° C., 2 weeks; read-out: Antimicrobial activity (MIC), Fungi F: Penicillium funiculosum
Procedure: (§1) The minimum inhibitory concentration (hereinafter abbreviated as MIC) against four bacteria (Enterobacter aerogenes, Eschericia coli, Pseudomonas aeruginosa and Bacillus subtillis) and four fungi (Aspergillusniger, Penicillium funiculosum, Gliocladium virens and Trichoderma viride) was measured and used as an indicator of the antimicrobial activity.
(§2) The MIC against fungi was measured as follows. The test fungal spores were suspended in sterilized water supplemented with a wetting agent. On the other hand, test media were prepared by adding solutions (0.3 ml) of an iodopropargyl derivative in dimethylformamide (DMF) at varying concentrations to a potato-dextrose-agar (PDA) medium (15 ml). The above spore suspensions (1 ml) were spread over the test media and the media were cultivated at 28° C. for 2 weeks. The presence or absence of fungal growth on the media was then observed to determine the MIC.

[2] = system: Eschericia coli; assay: MIC against bacteria, Eschericia coli (nutrient broth, turbidity); format: cell-based; settings: 30° C., 24 hours; read-out: Antimicrobial activity (MIC), Bacteria B: Eschericia coli
Procedure: as §1
(§3) The MIC against bacteria was measured as follows. The test bacteria were cultivated by inoculating a nutrient broth with them and keeping the mixture at 37° C. for 6 hours. On the other hand, the test media were prepared by adding solutions (0.2 ml) of an iodopropargyl derivative in dimethylformamide (DMF) at varying concentrations to the nutrient broth (10 ml). The above bacterial culture (0.1 ml) was added to the test media and the mixtures were cultivated at 30° C. for 24 hours. Then, the presence or absence of microorganism growth was assessed by observing the turbidity of media, by which the MIC was determined.

[3] = system: Bacillus subtillis; assay: MIC against bacteria, Bacillus subtillis (nutrient broth, turbidity); format: cell-based; settings: 30° C., 24 hours, read-out: Antimicrobial activity (MIC), Bacteria D: Bacillus subtillis
Procedure: as §1, §3

[4] = system: Gliocladium virens; assay: MIC against fungi, Gliocladium virens (PDA medium); format: cell-based; settings: Trichoderma virens, 336 h; 28° C., 2 weeks; read-out: Antimicrobial activity (MIC), Fungi G: Gliocladium virens
Procedure: as §1, §2

[5] = system: Trichoderma viride; assay: MIC against fungi, Trichoderma viride (PDA medium); format: cell-based; settings: 336 h, 28° C., 2 weeks, read-out: Antimicrobial activity (MIC), Fungi H: Trichoderma viride
Procedure: as §1, §2

[6] = system: mold; settings: background art; cited from earlier work
[7] = system: Enterobacter aerogenes; assay: MIC against bacteria, Enterobacter aerogenes (nutrient broth, turbidity); format: cell-based; settings: Klebsiella aerogenes; 30° C., 24 hours; read-out: Antimicrobial activity (MIC), Bacteria A: Enterobacter aerogenes
Procedure: as §1, §3

[8] = system: Aspergillus niger; assay: MIC against fungi, Aspergillus niger (PDA medium); format: cell-based; settings: 336 h, 28° C., 2 weeks, read-out: Antimicrobial activity (MIC), Fungi E: Aspergillus niger
Procedure: as §1, §2

[9] = system: Pseudomonas aeruginosa; assay: MIC against bacteria, Pseudomonas aeruginosa (nutrient broth, turbidity); format: cell-based; settings: 30° C., 24 hours, read-out: Antimicrobial activity (MIC), Bacteria C: Pseudomonas aeruginosa
Procedure: as §1, §3

[10] = system: human body; settings: background art; cited from earlier work
[11] = system: four bacteria and four fungi; assay: Antimicrobial activity (MIC) against four bacteria and four fungi, overall; format: cell-based; settings: from results of Table 1
Procedure: as §1, §3, §2

| Structure (SMILES) | MIC [1] | MIC [2] | MIC [3] | MIC [4] | MIC [5] | MIC [7] | MIC [8] | MIC [9] | antimicrobial activity against mold [6] | toxicity against the human body [10] | antimicrobial activity compared with the other derivatives [11] | antimicrobial activity compared with control 1-chloro-4-[[(3-iodo-2-propynyl)oxy]methoxy]benzene [11] |
| --- | --- | --- | --- | --- | --- | --- | --- | --- | --- | --- | --- | --- |
| CCOc1ccc(OC(C)OCC#CI)cc1 (stereo not drawn) [Derivative III-f, 1-Ethoxy-4-[1-[(3-Iodo-2-propynyl)oxy]ethoxy]benzene] | 4 to 10 mg/L (≈ 11.6 to 28.9 µM) | 400 to 1000 mg/L (≈ 1160 to 2890 µM) | 10 to 20 mg/L (≈ 28.9 to 57.8 µM) | 4 to 10 mg/L (≈ 11.6 to 28.9 µM) | 1 to 2 mg/L (≈ 2.89 to 5.78 µM) | > 1000 mg/L | 1 to 2 mg/L (≈ 2.89 to 5.78 µM) | > 1000 mg/L |  |  |  |  |
| CCOc1ccccc1OCOCC#CI [Derivative III-d, 1-Ethoxy-2-[[(3-iodo-2-propynyl)oxy]methoxy]benzene] | 4 to 10 mg/L (≈ 12 to 30.1 µM) | > 1000 mg/L | 20 to 40 mg/L (≈ 60.2 to 120 µM) | 4 to 10 mg/L (≈ 12 to 30.1 µM) | 1 to 2 mg/L (≈ 3.01 to 6.02 µM) | > 1000 mg/L | 1 to 2 mg/L (≈ 3.01 to 6.02 µM) | > 1000 mg/L |  |  |  |  |
| CCOc1ccc(OCOCC#CI)cc1 [Derivative III-b, 1-Ethoxy-4-[[(3-iodo-2-propynyl)oxy]methoxy]benzene] | > 20 mg/L | > 1000 mg/L | 100 to 200 mg/L (≈ 301 to 602 µM) | > 20 mg/L | 4 to 10 mg/L (≈ 12 to 30.1 µM) | > 1000 mg/L | 4 to 10 mg/L (≈ 12 to 30.1 µM) | > 1000 mg/L |  |  |  |  |
| COc1ccccc1OCOCC#CI [Derivative III-c, 1-[[(3-Iodo-2-propynyl)oxy]methoxy]-2-methoxybenzene] | > 20 mg/L | > 1000 mg/L | 200 to 400 mg/L (≈ 629 to 1260 µM) | > 20 mg/L | 10 to 20 mg/L (≈ 31.4 to 62.9 µM) | > 1000 mg/L | 10 to 20 mg/L (≈ 31.4 to 62.9 µM) | > 1000 mg/L |  |  |  |  |

Now from value to compound, other results behind:

| MIC [1] | MIC [2] | MIC [3] | MIC [4] | MIC [5] | MIC [7] | MIC [8] | MIC [9] | Structure (SMILES) | antimicrobial activity against mold [6] | toxicity against the human body [10] | antimicrobial activity compared with the other derivatives [11] | antimicrobial activity compared with control 1-chloro-4-[[(3-iodo-2-propynyl)oxy]methoxy]benzene [11] |
| --- | --- | --- | --- | --- | --- | --- | --- | --- | --- | --- | --- | --- |
| 0.4 to 1 mg/L (≈ 1.24 to 3.1 µM) | 100 to 200 mg/L (≈ 310 to 620 µM) | 10 to 20 mg/L (≈ 31 to 62 µM) | 1 to 2 mg/L (≈ 3.1 to 6.2 µM) | 1 to 2 mg/L (≈ 3.1 to 6.2 µM) | > 1000 mg/L | 0.4 to 1 mg/L (≈ 1.24 to 3.1 µM) | > 1000 mg/L | Clc1ccc(OCOCC#CI)cc1 [IF-1000, 1-Chloro-4-[[(3-iodo-2-propynyl)oxy]methoxy]benzene, reference compound] | particularly high antimicrobial activity against mold | low toxicity against the human body |  |  |
| 2 to 4 mg/L (≈ 6.02 to 12 µM) | > 1000 mg/L | 20 to 40 mg/L (≈ 60.2 to 120 µM) | 4 to 10 mg/L (≈ 12 to 30.1 µM) | 1 to 2 mg/L (≈ 3.01 to 6.02 µM) | > 1000 mg/L | 0.4 to 1 mg/L (≈ 1.2 to 3.01 µM) | > 1000 mg/L | COc1ccc(OC(C)OCC#CI)cc1 (stereo not drawn) [Derivative III-e, 1-[1-[(3-Iodo-2-propynyl)oxy]ethoxy]-4-methoxybenzene] |  |  | superior to the others in the antimicrobial activity |  |
| 2 to 4 mg/L (≈ 5.78 to 11.6 µM) | > 1000 mg/L | 20 to 40 mg/L (≈ 57.8 to 116 µM) | 4 to 10 mg/L (≈ 11.6 to 28.9 µM) | 2 to 4 mg/L (≈ 5.78 to 11.6 µM) | > 1000 mg/L | 2 to 4 mg/L (≈ 5.78 to 11.6 µM) | > 1000 mg/L | CCOc1ccccc1OC(C)OCC#CI (stereo not drawn) [Derivative III-h, 1-Ethoxy-2-[1-[(3-iodo-2-propynyl)oxy]ethoxy]benzene] |  |  |  |  |
| 2 to 4 mg/L (≈ 6.29 to 12.6 µM) | > 1000 mg/L | 10 to 20 mg/L (≈ 31.4 to 62.9 µM) | 2 to 4 mg/L (≈ 6.29 to 12.6 µM) | 0.4 to 1 mg/L (≈ 1.26 to 3.14 µM) | > 1000 mg/L | 0.4 to 1 mg/L (≈ 1.26 to 3.14 µM) | > 1000 mg/L | COc1ccc(OCOCC#CI)cc1 [Derivative III-a, 1-[[(3-Iodo-2-propynyl)oxy]methoxy]-4-methoxybenzene] |  |  | superior to the others in the antimicrobial activity | show an antimicrobial activity similar to that of 1-chloro-4-[[(3-iodo-2-propynyl)oxy]methoxy]benzene |
| 2 to 4 mg/L (≈ 6.02 to 12 µM) | > 1000 mg/L | 20 to 40 mg/L (≈ 60.2 to 120 µM) | 4 to 10 mg/L (≈ 12 to 30.1 µM) | 2 to 4 mg/L (≈ 6.02 to 12 µM) | > 1000 mg/L | 1 to 2 mg/L (≈ 3.01 to 6.02 µM) | > 1000 mg/L | COc1ccccc1OC(C)OCC#CI (stereo not drawn) [Derivative III-g, 1-[1-[(3-Iodo-2-propynyl)oxy]ethoxy]-2-methoxybenzene] |  |  |  |  |
| 0.4 to 1 mg/L (≈ 1.28 to 3.19 µM) | > 1000 mg/L | 20 to 40 mg/L (≈ 63.9 to 128 µM) | 0.4 to 1 mg/L (≈ 1.28 to 3.19 µM) | 0.4 to 1 mg/L (≈ 1.28 to 3.19 µM) | > 1000 mg/L | 1 to 2 mg/L (≈ 3.19 to 6.39 µM) | > 1000 mg/L | N#Cc1ccc(OCOCC#CI)cc1 [Derivative III-i, 1-Cyano-4-[[(3-iodo-2-propynyl)oxy]methoxy]benzene] |  |  | superior to the others in the antimicrobial activity | show an antimicrobial activity similar to that of 1-chloro-4-[[(3-iodo-2-propynyl)oxy]methoxy]benzene |
